Assay results reported in ChEMBL document CHEMBL1148196, “Isoprenoids of the soft coral Sarcophyton glaucum: Nyalolide, a new biscembranoid, and other terpenoids” (2004).

Columns and labels:
Format in all cases: functional
P388 = assay: Cytotoxicity against mouse P388 cells
A549 = assay: Cytotoxicity against human A549 cells
SK-MEL-28 = assay: Cytotoxicity against human SK-MEL-28 cells
HT-29 = assay: Cytotoxicity against human HT29 cells

Measured: GI50

COC(=O)/C1=C\CC/C(C)=C/[C@@H]2OC(=O)C(C)=C2C[C@H](OC(C)=O)/C(C)=C/CC1
10 µM: all assays above

CC(C)=C1C=C2[C@@H](CC[C@@H]2C)[C@@H](C)CC1=O [GUAIACOPHINE]
10 µM: all assays above

COC(=O)[C@]12CC(=O)[C@H](C(C)C)CC(=O)[C@H](C)CCC[C@H](C)CC(=O)[C@H]1CC(C)=C1C[C@H](OC(C)=O)[C@](C)(O)[C@H]3CC[C@@](C)(O)[C@H](CC/C(C)=C/[C@@H]12)O3 [NYALOLIDE]
10 µM: all assays above
